Measurements from patent US4864023A, “Pyrido(3,2,1-IJ)-1,3,4-benzoxadiazine derivatives” (priority 1988, dated 1989).
Converted amounts (≈) assume the structure as drawn.

Key:
Assay in all cases: in vitro antibacterial activity, standard agar dilution method
Assay type in all cases: cell-based
[1] = tested on: Bacillus subtilis PCI 219; conditions: PCI219, aerobic, read-out: minimum inhibitory concentration (MIC)
[2] = tested on: Klebsiella pneumoniae FDA PCI 602; conditions: FDAPCI602, aerobic, read-out: minimum inhibitory concentration (MIC)
[3] = tested on: Serratia marcescens IFO 12648; conditions: IFO12648, aerobic, read-out: minimum inhibitory concentration (MIC)
[4] = tested on: Pseudomonas aeruginosa A3; conditions: aerobic, read-out: minimum inhibitory concentration (MIC)
[5] = tested on: Escherichia coli NIHJ JC-2; conditions: NIHJJC2, aerobic, read-out: minimum inhibitory concentration (MIC)
[6] = tested on: Proteus rettgeri ATCC 14505; conditions: Providencia rettgeri, ATCC14505, aerobic, read-out: minimum inhibitory concentration (MIC)
[7] = tested on: Enterococcus faecalis NR 2943; conditions: NR2943, aerobic, read-out: minimum inhibitory concentration (MIC)
[8] = tested on: Staphylococcus aureus Smith; conditions: Staphylococcus aureus Smith; aerobic; agar dilution; read-out: minimum inhibitory concentration (MIC)
[9] = tested on: Staphylococcus epidermidis IFO 12993; conditions: IFO12993, aerobic, read-out: minimum inhibitory concentration (MIC)
[10] = tested on: Pseudomonas stutzeri IFO 12695; conditions: Stutzerimonas stutzeri, IFO12695, aerobic, read-out: minimum inhibitory concentration (MIC)
[11] = tested on: Staphylococcus aureus FDA 209P JC-1; conditions: FDA209P; Staphylococcus aureus FDA 209P JC-1; aerobic; agar dilution; read-out: minimum inhibitory concentration (MIC)
[12] = tested on: Citrobacter freundii IFO 12681; conditions: IFO12681, aerobic, read-out: minimum inhibitory concentration (MIC)
[13] = tested on: Pseudomonas aeruginosa NR 2950; conditions: NR2950, aerobic, read-out: minimum inhibitory concentration (MIC)
Escherichia coli NR 2630 = conditions: NR2630; Escherichia coli NR 2630; aerobic; agar dilution; read-out: minimum inhibitory concentration (MIC)
[14] = tested on: Proteus vulgaris OX19 ATCC 6898; conditions: ATCC6898, aerobic, read-out: minimum inhibitory concentration (MIC)
[15] = tested on: Enterobacter aerogenes NR 2945; conditions: Klebsiella aerogenes, NR2945, aerobic, read-out: minimum inhibitory concentration (MIC)
[16] = tested on: Enterobacter cloacae NR 2946; conditions: NR2946, aerobic, read-out: minimum inhibitory concentration (MIC)
[17] = tested on: Bordetella bronchiseptica ATCC 4617; conditions: ATCC4617, aerobic, read-out: minimum inhibitory concentration (MIC)
[18] = tested on: Staphylococcus aureus NR 2855; conditions: NR2855; Staphylococcus aureus NR 2855; aerobic; agar dilution; read-out: minimum inhibitory concentration (MIC)
[19] = tested on: Salmonella typhimurium IFO 12529; conditions: Salmonella enterica, aerobic, read-out: minimum inhibitory concentration (MIC)
[20] = tested on: Alcaligenes faecalis IFO 13111; conditions: IFO13111, aerobic, read-out: minimum inhibitory concentration (MIC)
[21] = tested on: Staphylococcus epidermidis NR 2942; conditions: NR2942, aerobic, read-out: minimum inhibitory concentration (MIC)

SMILES | MIC [1] [µg/mL] | MIC [2] [µg/mL] | MIC [3] [µg/mL] | MIC [4] [µg/mL] | MIC [5] [µg/mL] | MIC [6] [µg/mL] | MIC [7] [µg/mL] | MIC [8] [µg/mL] | MIC [9] [µg/mL] | MIC [11] [µg/mL] | MIC [12] [µg/mL] | MIC [13] [µg/mL] | MIC [14] [µg/mL] | MIC [15] [µg/mL] | MIC [16] [µg/mL] | MIC [17] [µg/mL] | MIC [18] [µg/mL] | MIC [19] [µg/mL] | MIC [20] [µg/mL] | MIC [21] [µg/mL] | further results
COC1CCN(c2c(F)cc3c(=O)c(C(=O)O)cn4c3c2OCN4C)C1 (stereo not shown) [Example 37, 9-fluoro-10-(3-methoxy-1-pyrrolidinyl)-3-methyl-7-oxo-2,3-dihydro-7H-pyrido[3,2,1-ij]-1,3,4-benzoxadiazine-6-carboxylic acid] | ≤ 0.0008 | 3.13 (≈ 8.61 µM) | 0.78 (≈ 2.15 µM) | 6.25 (≈ 17.2 µM) | 0.1 (≈ 0.275 µM) | 6.25 (≈ 17.2 µM) | 3.13 (≈ 8.61 µM) | ≤ 0.0008 | 0.025 (≈ 0.0688 µM) | 0.0016 (≈ 0.0044 µM) | 0.78 (≈ 2.15 µM) | 25 (≈ 68.8 µM) | ≤ 0.0008 | 0.1 (≈ 0.275 µM) | 0.2 (≈ 0.55 µM) | 1.56 (≈ 4.29 µM) | ≤ 0.0008 | 0.2 (≈ 0.55 µM) | 12.5 (≈ 34.4 µM) | ≤ 0.0008 | MIC [10]: 0.013 µg/mL (≈ 0.0358 µM); MIC (Escherichia coli NR 2630): ≤ 0.0008 µg/mL
CN1CCN(c2c(F)cc3c(=O)c(C(=O)O)cn4c3c2OC(CO)N4C)CC1 (stereo not shown) [Example 27] | 0.39 (≈ 0.994 µM) | 3.13 (≈ 7.98 µM) | 3.13 (≈ 7.98 µM) | 3.13 (≈ 7.98 µM) | 0.78 (≈ 1.99 µM) | 12.5 (≈ 31.9 µM) | 50 (≈ 127 µM) | 1.56 (≈ 3.98 µM) | 6.25 (≈ 15.9 µM) | 1.56 (≈ 3.98 µM) | 0.2 (≈ 0.51 µM) | 25 (≈ 63.7 µM) | 0.2 (≈ 0.51 µM) | 0.2 (≈ 0.51 µM) | 0.78 (≈ 1.99 µM) | 25 (≈ 63.7 µM) | 12.5 (≈ 31.9 µM) | 0.39 (≈ 0.994 µM) | 50 (≈ 127 µM) | 6.25 (≈ 15.9 µM) | MIC [10]: 0.2 µg/mL (≈ 0.51 µM)
CN1COc2c(N3CCN(CCO)CC3)c(F)cc3c(=O)c(C(=O)O)cn1c23 [Example 15] | 0.05 (≈ 0.127 µM) | 0.39 (≈ 0.994 µM) | 0.39 (≈ 0.994 µM) | 0.78 (≈ 1.99 µM) | 0.1 (≈ 0.255 µM) | 0.78 (≈ 1.99 µM) | 6.25 (≈ 15.9 µM) | 0.39 (≈ 0.994 µM) | 0.78 (≈ 1.99 µM) | 0.78 (≈ 1.99 µM) | 0.05 (≈ 0.127 µM) | 3.13 (≈ 7.98 µM) | 0.025 (≈ 0.0637 µM) | 0.05 (≈ 0.127 µM) | 0.1 (≈ 0.255 µM) | 0.78 (≈ 1.99 µM) | 0.78 (≈ 1.99 µM) | 0.05 (≈ 0.127 µM) | 3.13 (≈ 7.98 µM) | 0.78 (≈ 1.99 µM) | MIC [10]: 0.05 µg/mL (≈ 0.127 µM)
CN1COc2c(N3CCC(N)CC3)c(F)cc3c(=O)c(C(=O)O)cn1c23 [Example 33] | 0.2 (≈ 0.552 µM) | 0.78 (≈ 2.15 µM) | 0.78 (≈ 2.15 µM) | 0.39 (≈ 1.08 µM) | 0.2 (≈ 0.552 µM) | 1.56 (≈ 4.31 µM) | 3.13 (≈ 8.64 µM) | 0.2 (≈ 0.552 µM) | 0.78 (≈ 2.15 µM) | 0.2 (≈ 0.552 µM) | 0.2 (≈ 0.552 µM) | 6.25 (≈ 17.2 µM) | 0.05 (≈ 0.138 µM) | 0.05 (≈ 0.138 µM) | 0.2 (≈ 0.552 µM) | 25 (≈ 69 µM) | 1.56 (≈ 4.31 µM) | 0.1 (≈ 0.276 µM) | 50 (≈ 138 µM) | 0.78 (≈ 2.15 µM) | MIC (Escherichia coli NR 2630): 0.1 µg/mL (≈ 0.276 µM)
CN1COc2c(N3CCC(O)CC3)c(F)cc3c(=O)c(C(=O)O)cn1c23 [Example 13, 9-fluoro-10-(4-hydroxy-1-piperidyl)-3-methyl-7-oxo-2,3-dihydro-7H-pyrido[3,2,1-ij]-1,3,4-benzoxadiazine-6-carboxylic acid] | ≤ 0.0008 | 0.78 (≈ 2.15 µM) | 0.39 (≈ 1.07 µM) | 1.56 (≈ 4.29 µM) | 0.39 (≈ 1.07 µM) | 0.78 (≈ 2.15 µM) | 3.13 (≈ 8.61 µM) | 0.025 (≈ 0.0688 µM) | 0.1 (≈ 0.275 µM) | 0.1 (≈ 0.275 µM) | 0.39 (≈ 1.07 µM) | 6.25 (≈ 17.2 µM) | 0.05 (≈ 0.138 µM) | 0.2 (≈ 0.55 µM) | 0.39 (≈ 1.07 µM) | 0.78 (≈ 2.15 µM) | 0.05 (≈ 0.138 µM) | 0.1 (≈ 0.275 µM) | 3.13 (≈ 8.61 µM) | 0.05 (≈ 0.138 µM) | MIC [10]: 0.1 µg/mL (≈ 0.275 µM)
